The results in this text go back to PubChem BioAssay AID434951 (Broad Institute, 2010).

Active and inactive are the calls of the source.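 How the source made its calls: active means a fitted half-maximal concentration EC50 for the rise in nuclear signal no higher than ten times the top dose tested; inconclusive means flat fit with activity between 30% and 70%, or unusable fit; inactive means EC50 beyond ten times the top dose.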

Hypoxia-inducible factor 1-alpha (Homo sapiens), sequence (Q16665 whole entry, looked up): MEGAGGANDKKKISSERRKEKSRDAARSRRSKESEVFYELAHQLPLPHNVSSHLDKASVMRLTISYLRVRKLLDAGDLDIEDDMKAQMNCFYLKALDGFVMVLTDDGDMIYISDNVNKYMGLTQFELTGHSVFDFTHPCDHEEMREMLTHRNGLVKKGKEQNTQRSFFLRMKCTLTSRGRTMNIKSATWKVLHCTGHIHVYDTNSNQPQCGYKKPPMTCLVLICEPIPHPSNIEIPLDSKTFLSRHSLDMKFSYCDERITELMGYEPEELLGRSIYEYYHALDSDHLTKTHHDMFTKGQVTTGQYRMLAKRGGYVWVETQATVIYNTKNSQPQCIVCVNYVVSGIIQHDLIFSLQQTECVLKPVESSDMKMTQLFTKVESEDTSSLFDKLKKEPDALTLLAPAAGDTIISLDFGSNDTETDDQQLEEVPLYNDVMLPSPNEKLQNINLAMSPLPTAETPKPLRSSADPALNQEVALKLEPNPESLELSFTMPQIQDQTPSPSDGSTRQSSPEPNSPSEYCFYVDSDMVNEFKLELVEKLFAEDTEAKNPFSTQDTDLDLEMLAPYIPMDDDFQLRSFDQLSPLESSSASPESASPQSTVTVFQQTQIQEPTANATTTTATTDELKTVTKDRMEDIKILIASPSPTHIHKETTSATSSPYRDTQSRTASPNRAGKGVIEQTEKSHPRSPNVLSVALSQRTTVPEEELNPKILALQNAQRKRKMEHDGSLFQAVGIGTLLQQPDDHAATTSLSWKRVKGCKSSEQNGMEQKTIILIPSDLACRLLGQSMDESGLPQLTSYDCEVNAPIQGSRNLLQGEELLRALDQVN

This experiment has as its target Hypoxia-inducible factor 1-alpha (Homo sapiens) (UniProt Q16665). Description: HIF pathway activation, GFP-HIF1alpha translocation – imaging, fluorescence, U2OS GFP-HIF1alpha, confirmation (AID 434951). As to conditions: U2OS GFP-HIF1alpha nuclear intensity, high-content imaging.
For `COC(=O)c1ccc(-n2cncn2)c([N+](=O)[O-])c1`, the EC50 (as a rule, the concentration that produces a half-maximal response) was > 35 µM (inactive). Consider `O=C(CCCCCCC(=O)Nc1ccccc1)NO`, for which the EC50 was 5.94 µM. On to `Oc1ccc2ccccc2c1/C=N/Nc1nnc(-c2ncc[nH]2)c2ccccc12`, for which the EC50 was 8.6 µM. To `COc1ccc(C(=O)NCCc2nc3cc([N+](=O)[O-])ccc3n2C)cc1` belongs > 35 µM (inactive). In the case of `CC(NC(=O)c1cc2c(s1)CS(=O)(=O)C2)c1ccccc1` (configuration not stated), the EC50 was > 35 µM (inactive). As to `COc1ccc2ccccc2c1/C=N/Nc1cccc(C(=O)O)c1`, the EC50 is > 35 µM (inactive). Turning to `CC(C)CC(NC(=O)c1ccccc1NC(=O)c1ccccc1)C(=O)O` (configuration not stated), the EC50 was > 35 µM (inactive).

Turning to `COc1cc2ncnc(NCc3cccs3)c2cc1OC`, the EC50 was > 35 µM (inactive). `Cc1ccccc1NC(=O)c1ccccc1O`: the EC50 was > 35 µM (inactive). As to `CCCCn1c(=O)[nH]c(=O)c2c(C(=O)OCC)cc(-c3cccs3)nc21`, the EC50 is > 35 µM (inactive). On to `CCOc1ccc2c(C)c(Cl)c(=O)oc2c1`, for which the EC50 was > 35 µM (inactive).

Take `O=C(CS(=O)(=O)c1ccccc1)Nc1ccc(N2CCOCC2)cc1`: the EC50 was > 35 µM (inactive). For `Cc1ccc(C(=O)NC(=S)NNS(=O)(=O)c2ccc(C)cc2)cc1`, the EC50 is > 35 µM (inactive).

For the compound `COc1ccc2nc(C)cc(SCC(=O)N/N=C/c3ccc(O)cc3O)c2c1`, the EC50 was 8.74 µM. `CCC/C(O)=C1\C(=O)CC(C)(C)CC1=NCc1ccccc1`: the EC50 was > 35 µM (inactive). For `CC(=O)Nc1c([N+](=O)[O-])cc(C)c(Cl)c1[N+](=O)[O-]`, the EC50 is > 35 µM (inactive).

As for `COc1ccc(-c2nnc(-c3cc4c(ccc5ccccc54)oc3=O)o2)cc1`, the EC50 is > 35 µM (inactive). `Cc1ccsc1C(=O)N/N=C/c1ccc([N+](=O)[O-])cc1`: the EC50 was > 35 µM (inactive).

Regarding `CC(C(=O)Nc1ccccc1-c1ccccc1)N1CCN(C(=O)c2ccccc2)CC1` (configuration not stated), the EC50 was > 35 µM (inactive). Turning to `Cc1ccc(Nc2nc(CSc3nnc(-c4ccncc4)n3C)cs2)cc1`, the EC50 is > 35 µM (inactive). Consider `CCCC1CCC(=C(C#N)C(N)=O)CC1` (configuration not stated), for which the EC50 was > 35 µM (inactive). For `O=C(N/N=C/c1sc2ccccc2c1O)c1cccc2ccccc12`, the EC50 was 31.4 µM. To `Cc1ccc(-c2nc3ccccc3nc2NN)cc1` belongs > 35 µM (inactive); to `O=C(N/N=C(\Cc1ncc[nH]1)c1ccccc1)c1ccccc1`, > 35 µM (inactive); to `CCOCC(=O)Nc1ccc(S(=O)(=O)N2CCC(c3nc4ccccc4[nH]3)CC2)cc1`, > 35 µM (inactive). Regarding `C=C(C)Cn1c(CCNC(=O)C(C)C)nc2ccccc21`, the EC50 was > 35 µM (inactive). For `CCOC(=O)c1[nH]cnc1N=Nc1c(O)ccc2ccccc12`, the EC50 is 2.2 µM. Turning to `Clc1ccc(CSc2ccc(-c3ccccn3)nn2)cc1`, the EC50 is 9.44 µM.

On to `COc1ccc(CN2CCNC(=O)C2CC(=O)N(C)CC2CCOCC2)cc1OC` (configuration not stated), for which the EC50 is > 35 µM (inactive).

For `CCNc1nc(Cl)nc(NNC(=O)C(C)Oc2ccccc2)n1` (configuration not stated), the EC50 is > 35 µM (inactive). Turning to `Cc1nnc(-c2ccccc2)nc1N(C)C`, the EC50 is > 35 µM (inactive).

Take `CCOC(=O)C1CCCN(C(=O)c2ccc3nc(-c4ccccc4)c(-c4ccccc4)nc3c2)C1` (configuration not stated): the EC50 was > 35 µM (inactive).

With `Cn1cc(CN2CCC(C(=O)Nc3cccc(-c4cscn4)c3)CC2)cn1`, the EC50 was > 35 µM (inactive). As for `O=c1c2ccccc2nc2c3ccccc3c(NCCN3CCOCC3)nn12`, the EC50 was > 35 µM (inactive).

Turning to `CCCC(=O)NC(c1ccccc1)c1ccc2cccnc2c1O` (configuration not stated), the EC50 is 4.71 µM. With `COc1ccc(CC(=O)Nc2cccc(-c3nnc(-c4ccccc4)o3)c2)cc1OC`, the EC50 was > 35 µM (inactive). Turning to `O=C(CCCOc1ccc(Cl)cc1Cl)N/N=C/c1ccccc1O`, the EC50 was 7.41 µM.

`CCCNC(=O)c1cc(-c2ccco2)on1`: the EC50 was 5.66 µM. For the compound `Cc1cc(C)c2sc(NNC(=O)c3ccc(S(=O)(=O)N4CCc5ccccc5C4)cc3)nc2c1`, the EC50 is 10.5 µM.

For `COc1cccc(/C=N/Nc2ncnc3scc(-c4ccccc4)c23)c1O`, the EC50 is 1.27 µM. Take `Cc1cccc(-c2noc(CN(C)S(=O)(=O)c3cc(Cl)ccc3Cl)n2)c1`: the EC50 is > 35 µM (inactive). `O=C1OCc2cc(NC(=O)C34CC5CC(CC(C5)C3)C4)ccc21`: the EC50 is > 35 µM (inactive). In the case of `CC(Oc1ccc2c3c(c(=O)oc2c1)CCCC3)C(=O)NCC(O)c1ccccc1` (configuration not stated), the EC50 is > 35 µM (inactive).

As to `COc1ccc2c(c1)c(C(=O)CN1CCc3ccccc3C1)c(C)n2C`, the EC50 was > 35 µM (inactive). `Cc1cccc(NC(=O)Cc2noc3ccccc23)c1`: the EC50 was > 35 µM (inactive).

As for `COc1ccccc1/C=C/C(=O)c1ccccc1`, the EC50 was > 35 µM (inactive). Regarding `CCOc1ccc(NC(=O)CC2C(=O)Nc3ccccc3N2C(=O)c2ccccc2)cc1` (configuration not stated), the EC50 is > 35 µM (inactive).

For the compound `COc1ccccc1C(c1nnnn1CC1CCCO1)N1CCC(C(N)=O)CC1` (configuration not stated), the EC50 is > 35 µM (inactive). As for `CCC(Cc1ccccc1)n1c(=S)[nH]c2ccccc2c1=O` (configuration not stated), the EC50 is > 35 µM (inactive). The value for `CCOc1cc(N2CCOCC2)c(OCC)cc1NC(C)C(=O)N1CCC(C)CC1` (configuration not stated) was > 35 µM (inactive); that for `Oc1ccccc1/C=N/Nc1ncc(Br)cn1` was 13.4 µM.

Consider `COc1cccc(-c2cc(C(F)(F)F)n3nc(C(=O)N4CCC5(CC4)OCCO5)cc3n2)c1`, for which the EC50 was > 35 µM (inactive). As for `CCC(C)(C)c1nnc(NC(=O)C2CCN(C(=O)c3ccco3)CC2)s1`, the EC50 is > 35 µM (inactive). To `Cc1cc(NC(=O)c2ccccc2)n(-c2nc3ccccc3[nH]2)n1` belongs 27 µM; to `COc1ccc(/C=C2\SC(=O)N(CCC(=O)N(C)C3CCS(=O)(=O)C3)C2=O)cc1` (configuration not stated), > 35 µM (inactive); to `O=C(CN1CCCc2ccccc21)N/N=C/c1c(O)ccc2ccccc12`, 36.5 µM. With `Cc1cc(NC(=O)C2CC(=O)N(c3cccc(C)c3C)C2)no1` (configuration not stated), the EC50 is 33.3 µM.

Turning to `Cc1ccccc1CN1C(=O)CSc2ccc(C(=O)N3CCOCC3)cc21`, the EC50 was > 35 µM (inactive).

Regarding `COC(=O)Nc1ccc(S(=O)(=O)N(C)C)cc1`, the EC50 was > 35 µM (inactive). Regarding `NS(=O)(=O)c1ccc(CNC(=O)c2csc3c2CCCC3)cc1`, the EC50 was > 35 µM (inactive). Regarding `O=C(NCCc1csc(-c2cccc(F)c2)n1)c1ccco1`, the EC50 was > 35 µM (inactive). In the case of `COc1ccc(OC)c2[nH]c(C(=O)N/N=C/c3ccccc3O)cc12`, the EC50 was 6.61 µM. For `Cc1ccccc1-c1nc2ccccc2c(=O)n1/N=C/c1ccccc1[N+](=O)[O-]`, the EC50 was > 35 µM (inactive). Consider `COc1ccc(N2CCN(c3ccc(N4C(=O)CC(C)C4=O)cc3[N+](=O)[O-])CC2)cc1` (configuration not stated), for which the EC50 was > 35 µM (inactive).

Turning to `O=C(N/N=C(\c1ccccc1)c1cccnc1)c1cccc(F)c1`, the EC50 is 2.62 µM. As to `COc1ccccc1C/C(N)=N/O`, the EC50 was > 35 µM (inactive). With `CN(C(=O)COC(=O)c1ccc(F)c(S(=O)(=O)N2CCOCC2)c1)C1CCS(=O)(=O)C1` (configuration not stated), the EC50 was > 35 µM (inactive).

In the case of `Cc1occc1C(=O)NC1CCCCCC1`, the EC50 is > 35 µM (inactive). For the compound `CCCCC(=O)NC(c1ccccc1)c1ccc2cccnc2c1O` (configuration not stated), the EC50 was 17.4 µM.

On to `O=C(NCc1nc2ccccc2[nH]1)c1c(F)c(F)c(F)c(F)c1F`, for which the EC50 is > 35 µM (inactive). Regarding `COc1ccccc1NC(c1cccnc1)c1ccc2cccnc2c1O` (configuration not stated), the EC50 was 25.9 µM. On to `Cc1cc(C)n(-c2ccc3cccc(NS(C)(=O)=O)c3n2)n1`, for which the EC50 is 5.59 µM. With `O=C(CSc1nnc(-c2ccccc2Cl)o1)N1CCOCC1`, the EC50 is > 35 µM (inactive). As for `O=[N+]([O-])c1ccc(O)c(/C=N/Nc2ccccn2)c1`, the EC50 is 6.39 µM.

`CCN(CC)CCOC(=O)C(Cc1ccco1)Cc1cccc2ccccc12` (configuration not stated): the EC50 was > 35 µM (inactive). Turning to `COc1ccc(N/N=C/c2c(C(=O)O)ccc3ccccc23)cc1`, the EC50 was 6.81 µM.

On to `CC1CCN(Cc2nnnn2CCCC(=O)NCCc2cnn(C)c2)CC1`, for which the EC50 is > 35 µM (inactive).

Consider `Cc1nn(C)cc1S(=O)(=O)NCc1ccc2c(c1)OCO2`, for which the EC50 was > 35 µM (inactive). Take `CCCCc1c(C)nc(N)[nH]c1=O`: the EC50 is > 35 µM (inactive). Turning to `O=C(NC(=S)Nc1ccccn1)c1cc(-c2ccccc2)nc2ccccc12`, the EC50 was > 35 µM (inactive). Regarding `Cc1ccc(NC2CCCN(C(=O)C3CCCCC3)C2)cc1C` (configuration not stated), the EC50 is > 35 µM (inactive).

`O=C(NNC(=O)C(O)(c1ccccc1)c1ccccc1)C1CC1`: the EC50 was > 35 µM (inactive).

`CCCCCCC1CCC(c2nc(-c3ccncc3)no2)CC1` (configuration not stated): the EC50 was > 35 µM (inactive). For the compound `O=C1C(=O)c2ccccc2C(O)=C1c1cccc([N+](=O)[O-])c1`, the EC50 is > 35 µM (inactive).

Take `C=CCOc1nc(-c2ccccc2Cl)nc2ccccc12`: the EC50 was > 35 µM (inactive).

Take `COc1cc(NC(=O)CN2C(=O)c3ccccc3Sc3ccc(C(=O)N4CCOCC4)cc32)cc(OC)c1OC`: the EC50 is > 35 µM (inactive).

With `CC(C)c1onc(C(=O)Nc2sc3c(c2C#N)CCC3)c1[N+](=O)[O-]`, the EC50 is > 35 µM (inactive). The value for `Cn1cc(CC(=O)N2CCN(c3ccc(Cl)cc3)CC2)c2ccccc21` was > 35 µM (inactive); that for `CCOC(=O)C1=C(c2ccccc2)NC(=O)NC1c1ccc(O)c(Cl)c1` (configuration not stated) was 12.7 µM; that for `O=C(C[n+]1ccn(CCCNP2(=O)C=C(c3ccccc3)OC(c3ccccc3)=C2)c1)c1cccs1` was > 35 µM (inactive). Take `O=C(CSc1ncn[nH]1)NCCc1ccc(Cl)cc1Cl`: the EC50 was > 35 µM (inactive). `Oc1c(C=C2N=c3ccccc3=N2)sc(=S)n1-c1ccccc1`: the EC50 is > 35 µM (inactive).
